Counter-ions that a name gives are not always drawn. Like-named read-outs stand apart in the source and are kept apart here.
Columns and labels:
[1] = test system: ventricular arrhythmia induced by coronary artery ligation; assay: Inhibition of ventricular arrhythmia induced by coronary ligation (two-stage ligation of left coronary artery); format: in vivo, dog; conditions: for minimal effective dose: Canis lupus familiaris, iv, read-out: Minimum Effective Dose
Protocol: Arrhythmias induced in this manner are considered similar in nature to those resulting from myocardial infarction in humans. […] The antiarrhythmic and antiaggregatory activities of the compounds of this invention illustrated in the examples were tested by the following methods.
Ventricular arrhythmia was induced by a two-stage ligation of the anterior descending branch of the left coronary artery in each of two or more dogs. Compounds were administered intraveneously using an initial 5 mg/kg body weight dose, with additional doses injected at intervals to a maximum of 20 mg/kg. A compound was rated active if it produced at least a 25% reduction in ectopic beats for a period of at least ten minutes in half or more of the dogs. The average minimum effective dose for each compound was calculated.
Compounds which produced 75-100% reduction in the ventricular arrhythmia at the initial 5 mg/kg dose were further tested using 1 mg/kg doses injected as before at five minute intervals. As before, a compound was rated active if it produced at least a 25% reduction in ectopic beats for a period of at least ten minutes in half or more of the dogs. The average minimum effective dose for each compound was calculated.

[2] = test system: ADP-induced aggregation of blood platelets; assay: Inhibition of ADP-induced platelet aggregation (optical platelet aggregometry in platelet-rich plasma); format: cell-based; conditions: rat platelet-rich plasma; one minute incubation, ADP usually 1-3 mcM
[3] = cited from earlier work; for toxic / side effects: Goodman and Gilman
cardiac arrhythmia = conditions: cited from earlier work
[4] = test system: ventricular arrhythmia induced by coronary artery ligation; conditions: dog; cited from earlier work
[5] = dog, i.v., coronary ligation, average minimum dose giving at least 25% reduction in ectopic beats for at least ten minutes in half or more of the dogs

| SMILES | minimal effective dose [1, 5] [mg/kg] | IC50 [2] [µM] | toxic / side effects [3] | activity in man (cardiac arrhythmia) | activity of known antiarrhythmics under coronary ligation conditions [4] | also measured |
| --- | --- | --- | --- | --- | --- | --- |
| CC(C)N(CCC1(c2ccccc2Cl)CC2CCCCN2C1=O)C(C)C (racemic) [Example 6, 2-[2-[bis(1-methylethyl)amino]ethyl]-2-(2-chlorophenyl)hexahydro-3(2H)-indolizinone, Racemate A] | 3 | 88 |  |  |  |  |
| CC(C)N(CCC1(c2ccccc2Cl)CC2CCCCN2C1=O)C(C)C (racemic) [Example 7, 2-[2-[bis(1-methylethyl)-amino]ethyl]-2-(2-chlorophenyl)hexahydro-3(2H)-indolizinone, Racemate B] |  |  |  |  |  | Minimum Effective Dose ([1]; dog, i.v., coronary ligation, average minimum dose giving at least 25% reduction in ectopic beats for at least ten minutes in half or more of the dogs, listed as Ex. 7): 5.0 mpk |
| CC(C)N(CCC(C(N)=O)(c1ccccc1)c1ccccn1)C(C)C (stereo not drawn) [Disopyramide] |  |  | anticholinergic effects | active in man | active under these conditions | effective refractory period of the atrium ([3]; at therapeutic levels): lengthens the effective refractory period of the atrium; refractory period of the A-V node ([3]; at therapeutic levels): minimal effect on the refractory period of the A-V node; sinus node recovery time ([3]; at therapeutic levels): shortens the sinus node recovery time; minimal effective dose [1]: 9.2 mg/kg; Human dose (i.v.) (cardiac arrhythmia; human, i.v., comment in Table 1): ca. 2 mpk |
| CC(C)N(CCC1(c2ccccc2)CC2CCCCN2C1=O)C(C)C (stereo not drawn) [Example 3, 2-[2-[bis(1-methylethyl)amino]ethyl]-hexahydro-2-phenyl-3(2H)-indolizinone] | 5 |  |  |  |  |  |
| CC(C)N(CCC1(c2ccc(-c3ccccc3)cc2)CC2CCCCN2C1=O)C(C)C (stereo not drawn) [Example 10, 2-[2-[bis(1-methylethyl)amino]ethyl]-2-(4-phenylphenyl)hexahydro-3(2H)-indolizinone] | 3 | 34 |  |  |  |  |
| CC(C)N(CCC1(c2ccccc2)CC2CCCCN2C1=O)C(C)C (stereo not drawn) [Example 11, 2-[2-[bis(1-methylethyl)amino]ethyl]hexahydro-2-phenyl-3(2H)-indolizinone hydrochloride hydrate] |  | 81 |  |  |  |  |
| CCN(CC)CCNC(=O)c1ccc(N)cc1 [Procainamide] |  |  |  | active in man | active under these conditions |  |
| CC(C)NCC(O)COc1cccc2ccccc12 (stereo not drawn) [Propranolol] |  |  | may induce significant hypotension, left ventricular failure, or even cardiovascular collapse |  |  |  |
| C=C[C@H]1C[N@@]2CC[C@H]1C[C@@H]2[C@@H](O)c1ccnc2ccc(OC)cc12 [Quinidine] |  |  | exhibits several toxic reactions, such as cinchonism | active in man | active under these conditions |  |

Source: US4567270A, “Hexahydroindolizinones useful for treating cardiac arrhythmia, thrombotic disorders in mammals” (G. D. Searle & Co., priority 1984, dated 1986)
